Source: patent US6610683B2, “Treatment of infectious disease using interleukin-1β-converting enzyme (ICE)/CED-3 family inhibitors” (IDUN Pharmaceuticals, Inc., priority 1996, dated 2003)
Residues, ends and D or L forms follow the SMILES beside them. *: point of attachment. Cbz = O=C(OCc1ccccc1)*; CH2F = FC*

Experiments:
[1] = target: T1, ICE (Homo sapiens, UniProt P29466); conditions: cited from earlier work
T1 sequence (P29466 120-297 limits assumed): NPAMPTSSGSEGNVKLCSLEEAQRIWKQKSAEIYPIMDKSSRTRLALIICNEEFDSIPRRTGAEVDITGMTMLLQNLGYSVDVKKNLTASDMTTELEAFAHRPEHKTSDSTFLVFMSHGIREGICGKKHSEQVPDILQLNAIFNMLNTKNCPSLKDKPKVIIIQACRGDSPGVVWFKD
T1 sequence (P29466 317-404 limits assumed): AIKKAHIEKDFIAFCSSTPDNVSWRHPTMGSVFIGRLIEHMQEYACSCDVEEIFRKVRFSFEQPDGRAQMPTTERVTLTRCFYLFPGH

[2] = test system: mammary epithelial cells; conditions: absence of extracellular matrix; cited from earlier work
[3] = test system: granulocytes; experiment: Respiratory burst in isolated neutrophils measured by chemiluminescence (opsonized zymosan); assay type: cell-based; conditions: FIG. 7
Procedure: Respiratory burst in isolated neutrophils measured by Chemiluminescence
Whole blood anticoagulated with Acid Citrate Dextrose (ACD) with a ratio of 1:5 ACD to blood was collected (150 ml).
Neutrophils were isolated as described above.
Opsonized zymosan was prepared by suspending 125 mg zymosan particles in 25 ml pooled human serum (5 mg/ml) and incubating them for 20 minutes at 37° C. Centrifuge the suspension and resuspend the particles in 7 ml of PBS (18 mg/ml) and stored on ice until use (vortex prior to pipetting).
50 ml of a 250 μM solution of Lucigenin (MW 510.5) was prepared by dissolving 6.4 mg of the solid in 50 ml of PBS-G (+Ca, Mg). 10 μl of PBS-G (+Ca, Mg) to the wells in a white 96 well plate.
50 μl of the 250 μM Lucigenin solution was added to the wells in a white 96 well plate.
Cell preparations were obatined from cell culture (concentration at time zero=5.0×10^6 cells/ml) with PBS-G (+Ca, Mg). 20 μl of the neutrophil suspension was suspended to the appropriate wells and the plate was incubated the plate at 37° C. for three minutes. 10 μl of the opsonized zymosan was added to the wells.
The plate was read on the luminometer (Labsystems Luminoskan, Needham Heights, Mass.) for 14 min. at 37° C. in the kinetic mode and record results using the software DeltaSoft.
The ability to undergo the respiratory burst is another measure of granulocyte viability. The respiratory burst is a physiological response of granulocytes to foreign stimuli such as bacteria. In this example, the method for inducing the respiratory burst utilized opsonized bacterial zymosan. The respiratory burst was measured via chemiluminescence.

[4] = test system: granulocytes in whole blood; experiment: Whole blood assay: survival of granulocytes by hypodiploid analysis via flow cytometry; assay type: cell-based; conditions: time zero
Procedure: The following reagents were used:
anti-CD32-FITC monoclonal antibody obtained from Pharmingen.
25 Lysing Solution (10×Stock: 89.9 g NH4Cl;
(DPBS without calcium or magnesium obtained from Irivine Scientific. 2% fetal bovine serum in DPBS stored at 4° C. 50 μg/ml propidium iodide in DPBS sterile filtered and stored at 4° C.)
200 μl blood sample/2.8 ml 1×lysis solution in a 15 ml polypropylene conical tube.
Cap and invert to mix. Leave at room temperature for 3-5 minutes.
Centrifuge in a table-top Sorvall at 1200 rpm for 5 minutes at 4° C.
Aspirate supernate. Resuspend pellet in 200 μl/sample 2% FBS/DPBS. Add 20 μl/sample anti-CD32-FITC. Incubate 30 minutes on ice in the dark.
Add 5 ml/sample DPBS. Centrifuge at 1000 rpm for 5 minutes at 4° C.
Aspirate supernate. Resuspend pellet in1 ml/sample 2% FBS/DPBS.
Add 3 ml/sample ice-cold 95% EtOH dropwise while vortexing gently.
Incubate samples on ice in the dark for 30 minutes.
Centrifuge at 1000 rpm for 5 minutes at 4° C.
Resuspend each sample in 50 μl 5 mg/ml RN'ase. Transfer sample to 900 μl/sample […] Propidium Iodide in 12×75 mm Falcon polystyrene tubes.
Incubate on ice for 30 minutes.
Analyze samples by flow cytometry (argon laser) for forward and side scatter and fluorescence.
Survival of granulocytes in whole blood was measured by hypodiploid analysis in a similar fashion to isolated granulocytes via flow cytometry. […]

[5] = test system: T-lymphocyte cell line; conditions: cited from earlier work
[6] = test system: motoneurons; conditions: in vitro and in vivo; cited from earlier work
[7] = test system: granulocytes; experiment: Granulocyte survival in culture, hypodiploid nuclei by propidium iodide flow cytometry; assay type: cell-based; conditions: at 48 hours; FIG. 6
Procedure: Whole blood anticoagulated with Acid Citrate Dextrose (ACD) with a ratio of 1:5 ACD to blood was collected (˜100 ml).
Using polypropylene plastic ware, neutrophils are isolated as follows:
30 ml of the whole blood is added to 50 ml polypropylene centrifuge tubes containing 15 ml of 6% Dextran (in Saline). The blood is allowed to sediment for approximately 1 hour at room temperature.
The turbid straw colored layer harvested from the top of the cylinders into 50 ml conical polypropylene tubes. The blood cells were pelleted by centrifugation at 240×g (Sorvall centrifuge at 1200 rpm) for 12 min. at 4° C. with the brake on low. […]
The supernatant was aspirated and the neutrophil pellet resuspended in 4.0 ml cold PBS (w/o Ca, Mg) on ice. 10 μl of the neutrophil cell suspension was diluted with 990 μl of Trypan blue (1:100) and cells counted using a hemacytometer. The cell number and viability were determined. […]
Neutrophils were resuspended in hypotonic fluorochrome solution at a density of 5×10^6 cells/ml. Propidium iodide fluorescence of individual nuclei was evaluated in FL2 and measured on a logarithmic scale while gating on physical parameters in forward and side scatter to exlude cell debris.
At least 10,000 events per sample were collected and the results were evaluated relative to a non-apoptotic neutrophil population. […]

[8] = after granulocyte culture for 72 hours

## CC(=O)NC(Cc1ccc(O)cc1)C(=O)NC(C(=O)NC(C)C(=O)NC(CC(=O)O)C(=O)C=[N+]=[N-])C(C)C (stereo not drawn) [AC-Tyr-Val-Ala-Asp-COCHN2]
[1]
  inhibition of the enzyme (ICE): potent, competitive, irreversible inhibitor

## CC(C)(C)OC(=O)N[C@@H](CC(=O)OCc1ccccc1)C(=O)CCl [Boc-D-(benzyl) chloromethylketone]
[2]
  prevention of cell death of mammary epithelial cells: prevented

## Cc1c(C(=O)N[C@H](C(=O)NC(CC(=O)O)C(=O)CF)C(C)C)n(C)c2ccccc12 (stereo partly drawn) [Example 43, N-[(1,3-dimethylindole-2-carbonyl)Valinyl]-3-amino-4-Oxo-5-fluoropentanoic Acid]
[3]; [8]
  maintenance of the respiratory burst: partially maintained
[3]; for 48 hours
  maintenance of the respiratory burst: substantially maintained

## Cc1c(C(=O)N[C@H](C(=O)NC(CC(=O)O)C(=O)COC(=O)c2c(Cl)cccc2Cl)C(C)C)n(C)c2ccccc12 (stereo partly drawn) [Example 70, N-[N-(1,3-dimethyl-indole-2-carbonyl)-valinyl]-3-amino-5-(2,6-dichlorobenzoyl)oxy-4-oxo-pentanoic Acid]
[3]; [8]
  maintenance of the respiratory burst: partially maintained
[3]; for 48 hours
  maintenance of the respiratory burst: substantially maintained
[4]
  Percentage of diploid granulocytes in whole blood: 96%

## CC(=O)N[C@@H](CC(=O)O)C(=O)N[C@@H](CCC(=O)O)C(=O)N[C@H](C(=O)N[C@H](C=O)CC(=O)O)C(C)C [acetyl-DEVD-aldehyde]
[5]
  inhibition of anti-Fas induced apoptosis: inhibited

## CC(=O)N[C@@H](Cc1ccc(O)cc1)C(=O)N[C@H](C(=O)N[C@@H](C)C(=O)N[C@H](C=O)CC(=O)O)C(C)C [acetyl-YVAD-aldehyde]
[6]
  block of the death of motoneurons: blocked

## CC(=O)N[C@@H](Cc1ccc(O)cc1)C(=O)N[C@H](C(=O)N[C@@H](C)C(=O)N[C@@H](CC(=O)O)C(=O)CCl)C(C)C [acetyl-YVAD-chloromethylketone]
[6]
  block of the death of motoneurons: blocked

## COC(=O)C[C@H](NC(=O)[C@H](C)NC(=O)[C@@H](NC(=O)OCc1ccccc1)C(C)C)C(=O)CF [zVADfmk] (Cbz-Val-Ala-Asp(OMe)-CH2F)
[7]
  effect on improving granulocyte survival: weak effect
[3]; opsonized zymosan, chemiluminescence
  maintenance of the respiratory burst: did not maintain the respiratory burst
